{
  "source": "patent US20120190752A1",
  "about": "“EXO-S-MECAMYLAMINE METHOD, USE, AND COMPOUND FOR TREATMENT” (Targacept Inc., priority 2009, published 2012)",
  "test_system": "subjects with major depressive disorder (MDD) who were inadequate responders to citalopram",
  "experiment": "HAMD Anxiety/Somatization Factor, Phase 2b add-on trial",
  "assay_type": "in vivo, human",
  "procedure": "In more detail, a multi-center double-blind, randomized, placebo-controlled, parallel group, flexible dose titration study of TC-5214 as adjunctive therapy in subjects with major depressive disorder (MDD) who were inadequate responders to citalopram was conducted in centers in the US and India. The study consisted of a screening period, baseline/washout period, open-label phase, double-blind phase, and a follow-up visit. Subject participation in the study could continue for up to 16 weeks of treatment. Following a washout period of up to 28 days for other antidepressants, subjects with MDD and a MADRS total score >/=28 and a Clinical Global Impression-Severity (CGI-S) score >/=4 were enrolled on Day 1 into an open-label citalopram-only phase of the study. This phase lasted 8 weeks, with citalopram (CIT) dose increased from a once-daily dose of 20 mg (Day 1 through Week 4) to 40 mg (Week 4 through Week 8). A total of 579 subjects entered the open-label citalopram phase. At Week 8, subjects who tolerated 40 mg CIT, but whose MADRS score was reduced <50% from baseline and no lower than 17, and CGI-S≧4, were considered inadequate responders. These subjects (n=270) were randomized in a double-blind fashion to receive either placebo or TC-5214-23 as add-on therapy to continued CIT. The double-blind phase of the study also lasted 8 weeks (Week 8 to Week 16). Study drug, TC-5214-23 or placebo, was started at 2 mg daily (1 mg twice per day [BID] dosing), added on to continuing CIT (40 mg PO qd). After 2 weeks of treatment, the dose of TC-5214 could be increased to 4 mg (2 mg BID) or continued unchanged, with up-titration based upon good tolerability and inadequate therapeutic response. After a further 2 weeks, the dose of TC-5214 could be increased again to 8 mg (4 mg BID) if judged appropriate by the investigator, based upon good tolerability and inadequate therapeutic response. At any time during the double-blind phase of the study, placebo or TC-5214-23 could be reduced to the previous dose level following the emergence of unacceptable adverse events (AEs). […] At this follow-up, any signs or symptoms of relapse were evaluated. If a subject was prematurely discontinued from the study between Week 8 and Week 16 for any reason, the investigator was to make every effort to perform all evaluations as per protocol, assuming the subject had reached the end of the double-blind add-on treatment phase. These evaluations were to be made as soon as possible and within 2 weeks of discontinuation. […] There was no meaningful difference in results as a function of age, gender, site, or smoking status. With regard to efficacy endpoints, the following tables present efficacy used in the ITT (Intent-to-Treat) and PP (Per Protocol) populations unless otherwise specific. The primary inference was based upon Week 16 visit using the ITT population. Change from baseline was obtained by subtracting the baseline values from the individual on-treatment values. Change from Week 16 was obtained by subtracting the Week 16 values from the individual follow-up visit (Week 18/19) values. If either the baseline or Week 16 or on-treatment or follow-up value was missing, the change from baseline or Week 16 value was also set to missing. To account for missing data, the last observation carry forward (LOCF) method was used for the ITT and PP populations. Thus, the last available on-therapy observation for a subject, including the observation at premature discontinuation, was used to estimate subsequent missing data points. For efficacy, baseline data were collected at Week 8 in the double-blind augmentation phase electronic case report form pages. Analysis for the secondary endpoints were performed on both the ITT and PP populations. The secondary endpoints were as follows in Table 5. [table]",
  "key": {"[1]": {"conditions": "ITT, Double Blind Week 16 LOCF (change from Week 8)"}, "[2]": {"conditions": "ITT, Double Blind Week 18 LOCF (Follow-up), change from Week 16"}, "[3]": {"conditions": "PP, Double Blind Week 16 LOCF (change from Week 8)"}, "[4]": {"conditions": "PP, Double Blind Week 18 LOCF (Follow-up), change from Week 16"}},
  "data": [
    {"compound": "CNC1(C)C2CCC(C2)C1(C)C", "note": "(stereo in doubt) [TC-5214, (S)—N,2,3,3-tetramethylnorbornan-2-amine]", "values": [
      {"measurement": "HAMD anxiety/somatization subscale score change from baseline compared with placebo", "setting": "ITT and PP populations, result in words", "value": "statistically significant decreases (improvements)"},
      {"measurement": "HAMD anxiety/somatization Mean Difference between TC-5214 and Placebo", "setting": "[1]", "value": 1.93},
      {"measurement": "HAMD anxiety/somatization subscale Adjusted Mean change", "setting": "[1]", "value": "−4.58"},
      {"measurement": "HAMD anxiety/somatization Mean Difference between TC-5214 and Placebo", "setting": "[2]", "value": "−0.00"},
      {"measurement": "HAMD anxiety/somatization subscale Adjusted Mean change", "setting": "[2]", "value": "−0.14"},
      {"measurement": "HAMD anxiety/somatization Mean Difference between TC-5214 and Placebo", "setting": "[3]", "value": 1.92},
      {"measurement": "HAMD anxiety/somatization subscale Adjusted Mean change", "setting": "[3]", "value": "−4.93"},
      {"measurement": "HAMD anxiety/somatization Mean Difference between TC-5214 and Placebo", "setting": "[4]", "value": 0.01},
      {"measurement": "HAMD anxiety/somatization subscale Adjusted Mean change", "setting": "[4]", "value": "−0.16"}
    ]}
  ]
}
